Values of other authors, collected in US20060063833A1, “Ready-to-use oxaliplatin solutions” (priority 2004, published 2006).

Key:
[1] = at least at concentrations below 1 mg/ml

## O=C1[O][Pt-2]2([NH2+]C3CCCC[C@H]3[NH2+]2)[O]C1=O (stereo partly drawn) [Oxaliplatin, cis-oxalato-(trans-1,2-cyclohexanediamine)-platinum(II)]
ethanol
  solubility in ethanol: practically insoluble
methanol
  solubility in methanol: scarcely soluble
water
  solubility in water: soluble
[1]
  stability in water: not very stable
